The source of these data is EPA's ToxValDB 9.5 (doi:10.2903/j.efsa.2009.343r).

In data set [1] the test system is Typhlodromus pyri. Put plainly: LR50; higher = less toxic. The note with it: not reported; mortality.
Data set [2] has as its system Typhlodromus pyri. The note with it: not reported; F; reproduction.
For data set [3], the system named is Anas platyrhynchos. As to conditions: oral, mortality.
Data set [4] deals with Rattus norvegicus.
For data set [5], the system named is Daphnia magna. The note with it: chronic/long-term; duration: 21 days.
The test system of data set [6] is Oryctolagus sp. The note with it: reproduction developmental; body weight.
Data set [7] concerns Pimephales promelas. As to conditions: chronic/long-term; duration: 36 days; development.
Data set [8] relates to Colinus virginianus. As to conditions: for NOEL: reproduction developmental.
The subject of data set [9] is Canidae. As to conditions: subchronic; duration: 90 days; oral; Dog Other; histopathology: nonneoplastic.
The test system of data set [10] is Tagia sp. As to conditions: acute; duration: 14 days; mortality.
For data set [11], the system named is Oncorhynchus mykiss. The note with it: acute; duration: 96 hours; mortality.
Data set [12] concerns Apis mellifera. As to conditions: acute; duration: 48 hours; oral; unspecified; mortality.

`COc1cnc(OC)n2nc(NS(=O)(=O)c3c(OCC(F)F)cccc3C(F)(F)F)nc12` [Penoxsulam] registered an LR50 in data set [1] of 7.46 g/ha. Further, in data set [2], the LEL turned out to be 4 g/ha. Besides, the LD50 in data set [3] (acute, unspecified) is > 2000 mg/kg-day; in data set [4] (acute, oral, mortality) it was > 5000 mg/kg-day; in [12], > 100 µg/piece. In addition, the LC50 in [3] (short-term, duration: 8 days, feed) is > 1120 mg/kg-day; in data set [8] (acute, duration: 8 days, oral, diet, mortality) it was > 804 mg/kg-day; in data set [10], > 1000 mg/kg; in data set [11], > 100 µg/mL. Moreover, the NOAEL in data set [4] (chronic, duration: 2 years, histopathology: nonneoplastic) is 5 mg/kg-day; in data set [4] (reproduction developmental, body weight), 100 mg/kg-day; in data set [4] (reproduction developmental, reproduction) it was 300 mg/kg-day; in data set [6], 25 mg/kg-day; in [9], 18 mg/kg-day. The NOEC came to 3.33 mg/L in data set [5] and 10 mg/L in [7]. Moreover, the NOEL was 80.1 mg/kg-day in data set [8] (F) and 82.5 mg/kg-day in data set [8] (M).

Broadly, the NOAEL is the highest dose or exposure tested at which no adverse effect was seen.
